Experiments:
pKa by UV-metric method = assay type: physicochemical; conditions: read-out: pKa Values (second value)
[1] = Systemic (plasma) PK after SCS injection; assay type: in vivo, Dutch belted rabbits; conditions: SCS 0.5 mg/eye, FIG. 5
Description: (§1) Dutch belted rabbits were used in the study.
(§2) 100 μL of the suspension was administered bilaterally to the suprachoroidal space of the eye, at a dose of 0.5 mg/eye. Two rabbits (4 eyes) were treated per time point, except at day 28, when 3 rabbits were treated. Plasma was collected at 3 hours, 1 day, 3 days, 7 days, 10 days, 14 days, 21 days, 28 days, 56 days, and 84 days post-dose. Aqueous humor, vitreous humor, peripheral retina, peripheral sclera/choroid/RPE, central retina, and central sclera/choroid/RPE punch punch tissues were collected at 1 day, 7 days, 14 days, 28 days, 56 days and 84 days post-dose. Ocular examinations and intraocular pressure (IOP) were also assessed, anterior and posterior segments, at 1 day, 7 days, 14 days, 28 days, 56 days, and 84 days post-dose. Redness, chemosis, discharge, opacity, aqueous flare, cellular flare, vitreous flare, retinal vasculature, retinal and choroidal pathology were assessed at those time points.

[2] = Aqueous solubility (deionized water); assay type: physicochemical; conditions: room temperature
[3] = Ocular PK (tissue drug levels) after SCS injection; assay type: in vivo, Dutch belted rabbits
Description: as §1, §2

Dutch belted rabbits = experiment: Ocular tolerability after suprachoroidal (SCS) injection; assay type: in vivo
Description: as §1, §2

human plasma kallikrein = target: T1, human plasma kallikrein (Homo sapiens, UniProt P03952); experiment: Plasma kallikrein activity, chromogenic substrate S2302; assay type: biochemical
T1 construct: purchased Enzyme Research Laboratories, South Bend, IN, USA
T1 sequence (P03952 391-638 limits assumed): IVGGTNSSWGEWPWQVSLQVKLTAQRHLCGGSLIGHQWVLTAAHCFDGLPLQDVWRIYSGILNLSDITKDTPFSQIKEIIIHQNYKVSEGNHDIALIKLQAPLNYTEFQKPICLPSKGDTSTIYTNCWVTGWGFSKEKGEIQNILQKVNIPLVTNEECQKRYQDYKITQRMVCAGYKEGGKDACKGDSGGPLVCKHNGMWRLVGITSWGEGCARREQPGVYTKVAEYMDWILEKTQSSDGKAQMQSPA
T1 sequence (P03952 20-390 partner limits assumed): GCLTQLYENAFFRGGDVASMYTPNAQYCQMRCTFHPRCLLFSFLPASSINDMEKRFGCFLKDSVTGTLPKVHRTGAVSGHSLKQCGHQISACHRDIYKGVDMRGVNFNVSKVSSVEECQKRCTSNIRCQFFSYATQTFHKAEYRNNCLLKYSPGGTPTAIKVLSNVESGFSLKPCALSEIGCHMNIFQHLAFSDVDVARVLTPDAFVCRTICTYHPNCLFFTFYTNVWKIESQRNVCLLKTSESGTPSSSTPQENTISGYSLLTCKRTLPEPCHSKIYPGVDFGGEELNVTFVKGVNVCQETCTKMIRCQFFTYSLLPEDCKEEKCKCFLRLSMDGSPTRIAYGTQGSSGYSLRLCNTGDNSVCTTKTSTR
Description: The effect of compounds of the disclosure on human plasma kallikrein activity is determined by the method described in Zhang et al. (Medicinal Chemistry, 2006, No. 6, p 547). Briefly, plasma kallikrein activity is determined using a chromogenic substrate (S2302). In these experiments, 2 nM plasma kallikrein (Enzyme Research Laboratories, South Bend, IN, USA) is incubated with 80 μM S2302 (H-D-Pro-Phe-Arg-p-nitroaniline) in the absence or presence of increasing concentrations of compounds of the disclosure in a final volume of 200 μL Tris-HCI buffer (200 mM NaCl; 2.5 mM CaCl2; 50 mM Tris-HCl, pH 7.8). Assay reactions were initiated by adding enzyme into pre-mixed solution of inhibitors and substrate (enzyme initiated reaction) After incubation at 30° C., the activity of plasma kallikrein is measured as a change in absorbance at OD 405 nm (for example using a BioTek PowerWave X340 Microplate Reader, Winooski, VT, USA or equivalent device). Data are analyzed using appropriate software (for example, Four Parameter Logistic Curve, SigmaPlot software, Systat Software, Inc., San Jose, CA, USA or equivalent).

[4] = Partition coefficient (octanol-phosphate buffer); assay type: physicochemical; conditions: pH 7.4

C=Cc1cc(C(=O)Nc2ccc(C(=N)N)cc2)c(-c2ccc(C(=O)NCC3CC3)nc2C(=O)O)cc1OC.Cl [BCX4161, avoralstat]
pKa (pKa by UV-metric method): 11.4
systemic exposure [1]: minimal to no systemic exposure
solubility [2]: 20 to 40 µg/mL
duration of highly favorable PK profile ([3]; 0.5% suspension, single SCS injection): at least 3 months
drug levels in central and peripheral RPE/choroid/sclera ([3]; SCS 0.5 mg/eye, FIG. 1): High drug levels
drug levels in central and peripheral retina ([3]; SCS 0.5 mg/eye, FIG. 2): High levels
drug levels in the aqueous humor ([3]; SCS 0.5 mg/eye, FIG. 4C): low levels
drug levels in the vitreous humor ([3]; SCS 0.5 mg/eye, FIGS. 4A and 4B): moderate to low levels
time high drug levels present in central and peripheral RPE/choroid/sclera ([3]; after SCS injection 0.5 mg/eye): ≥ 84 days
time high drug levels present in central and peripheral retina ([3]; after SCS injection 0.5 mg/eye): ≥ 84 days
tolerability (Dutch belted rabbits; 0.5% suspension, single SCS injection, 0.5 mg/eye): well tolerated
ocular exam score (Dutch belted rabbits; all observations, SCS 0.5 mg/eye): 0
conjunctival redness and chemosis (Dutch belted rabbits; day 1 post-dose, SCS 0.5 mg/eye): Mild
adverse events (Dutch belted rabbits; days 7, 14, 28, 56, or 84 post-dose, SCS 0.5 mg/eye): No adverse events
inhibition of human plasma kallikrein activity (in words) (human plasma kallikrein): potent and highly specific inhibitor
Partition Coefficient (octanol-phosphate buffer), log D7.4 [4]: log D7.4 = 1.9
